{"source": "ChEMBL document CHEMBL6182913", "about": "“Design of Potent Small-Molecule Stimulator of Interferon Gene Inhibitor and Stimulator of Interferon Gene Mutant-Specific Degrader” (J Med Chem, 2025)", "key": {"[1]": {"molecular_target": "Stimulator of interferon genes protein (Homo sapiens, UniProt Q86WV6, G230A/R293Q/R71H)", "sequence (Q86WV6 whole entry R71H/G230A/R293Q)": "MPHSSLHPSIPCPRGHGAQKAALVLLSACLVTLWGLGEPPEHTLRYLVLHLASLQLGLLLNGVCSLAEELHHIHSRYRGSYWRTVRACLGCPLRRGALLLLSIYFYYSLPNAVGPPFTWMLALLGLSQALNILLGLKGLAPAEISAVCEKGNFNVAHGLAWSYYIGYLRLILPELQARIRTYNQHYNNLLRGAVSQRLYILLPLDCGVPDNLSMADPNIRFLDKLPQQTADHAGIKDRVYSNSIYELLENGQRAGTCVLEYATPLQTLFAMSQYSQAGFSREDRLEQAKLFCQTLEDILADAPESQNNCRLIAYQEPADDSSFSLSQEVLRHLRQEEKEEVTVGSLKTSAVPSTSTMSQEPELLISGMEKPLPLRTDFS", "assay": "Inhibition of cGAMP-induced STING HAQ mutant transfected in human THP1-Blue ISG cells preincubated with compound for 6 hrs followed by cGAMP addition and measured after 18 hrs by QUANTI-Blue based microplate reader analysis", "type": "cell-based"}, "[2]": {"molecular_target": "T1, Stimulator of interferon genes protein (Homo sapiens, UniProt Q86WV6)", "assay": "Inhibition of cGAMP-induced STING S154 mutant transfected in human THP-1 cells preincubated with compound for 6 hrs followed by cGAMP addition and measured after 18 hrs by QUANTI-Luc based microplate reader analysis", "type": "cell-based"}, "[3]": {"molecular_target": "T1, Stimulator of interferon genes protein", "assay": "Inhibition of STING in human THP-1 cells assessed as inhibition of cGAMP-induced IFN-beta release at 0.05 to 0.5 uM pretreated with compound for 6 hrs followed by cGAMP addition and measured after 18 hrs by ELISA", "type": "cell-based", "settings": "dose 0.05-0.5 µM, time 24.0 hrs"}, "[4]": {"molecular_target": "T2, Stimulator of interferon genes protein (Mus musculus) (UniProt Q3TBT3)", "T2 sequence (whole entry)": "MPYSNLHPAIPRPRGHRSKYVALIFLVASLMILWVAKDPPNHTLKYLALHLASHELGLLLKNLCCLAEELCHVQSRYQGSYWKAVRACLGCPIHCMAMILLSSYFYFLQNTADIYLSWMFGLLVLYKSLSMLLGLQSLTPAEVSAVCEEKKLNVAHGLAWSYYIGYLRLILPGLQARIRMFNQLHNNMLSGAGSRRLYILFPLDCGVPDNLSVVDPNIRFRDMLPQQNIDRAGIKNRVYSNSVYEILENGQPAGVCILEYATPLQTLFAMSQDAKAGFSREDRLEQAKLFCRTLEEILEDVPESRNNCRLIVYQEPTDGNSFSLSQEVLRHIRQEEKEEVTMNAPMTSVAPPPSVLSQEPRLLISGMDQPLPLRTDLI", "assay": "Inhibition of STING in mouse BMDM cells assessed as inhibition of cGAMP-induced IFN-beta release at 0.05 to 0.5 uM pretreated with compound for 6 hrs followed by cGAMP addition and measured after 18 hrs by ELISA", "type": "cell-based", "settings": "dose 0.05-0.5 µM, time 24.0 hrs"}, "[5]": {"molecular_target": "T2, Stimulator of interferon genes protein (Mus musculus)", "assay": "Inhibition of STING in mouse BMDM cells assessed as inhibition of cGAMP-induced CXCL-10 release at 0.05 to 0.5 uM pretreated with compound for 6 hrs followed by cGAMP addition and measured after 18 hrs by ELISA", "type": "cell-based", "settings": "dose 0.05-0.5 µM, time 24.0 hrs"}, "[6]": {"molecular_target": "T2, Stimulator of interferon genes protein (Mus musculus)", "assay": "Inhibition of STING in mouse BMDM cells assessed as inhibition of LPS-induced IFN-beta release at 0.05 to 0.5 uM pretreated with compound for 6 hrs followed by LPS addition and measured after 18 hrs by ELISA", "type": "cell-based", "settings": "dose 0.05-0.5 µM, time 24.0 hrs"}, "[7]": {"molecular_target": "T2, Stimulator of interferon genes protein (Mus musculus)", "assay": "Inhibition of STING in mouse BMDM cells assessed as inhibition of poly(I:C) -induced IFN-beta release at 0.05 to 0.5 uM pretreated with compound for 6 hrs followed by poly(I:C) addition and measured after 18 hrs by ELISA", "type": "cell-based", "settings": "dose 0.05-0.5 µM, time 24.0 hrs"}, "[8]": {"molecular_target": "T2, Stimulator of interferon genes protein (Mus musculus)", "assay": "Inhibition of STING in mouse BMDM cells assessed as inhibition of ODN 2395-induced IFN-beta release at 0.05 to 0.5 uM pretreated with compound for 6 hrs followed by ODN 2395 addition and measured after 18 hrs by ELISA", "type": "cell-based", "settings": "dose 0.05-0.5 µM, time 24.0 hrs"}, "[9]": {"molecular_target": "T1, Stimulator of interferon genes protein", "assay": "Inhibition of STING activation in human THP1-Blue ISG cells assessed as decrease in cGAMP-induced IRF3 phosphorylation at 0.1 to 1 uM preincubated with compound for 6 hrs followed by cGAMP addition and measured after 3 hrs by Western blotting analysis", "type": "cell-based", "settings": "dose 0.1-1 µM, time 9.0 hrs"}, "[10]": {"molecular_target": "T1, Stimulator of interferon genes protein", "assay": "Inhibition of STING activation in human THP1-Blue ISG cells assessed as inhibition of c-GAMP-induced STING dimerization at 0.1 to 1 uM preincubated with compound for 6 hrs followed by cGAMP addition and measured after 3 hrs by Western blotting analysis", "type": "cell-based", "settings": "dose 0.1-1 µM, time 9.0 hrs"}, "[11]": {"molecular_target": "T1, Stimulator of interferon genes protein", "assay": "Inhibition of STING activation in human THP1-Blue ISG cells assessed as inhibition of c-GAMP-induced STING oligomerization at 0.1 to 1 uM preincubated with compound for 6 hrs followed by cGAMP addition and measured after 3 hrs by Western blotting analysis", "type": "cell-based", "settings": "dose 0.1-1 µM, time 9.0 hrs"}, "[12]": {"system": "Stimulator of interferon genes protein (Homo sapiens), Q86WV6 [UNDEFINED MUTATION]", "sequence (Q86WV6 whole entry, looked up, change not shown)": "as the sequence (Q86WV6 whole entry R71H/G230A/R293Q) above, with H71R, A230G, Q293R counted along it", "assay": "Induction of STING M155 mutant degradation in human THP-1 cells at 5 uM incubated for 24 hrs by global proteomics analysis", "type": "cell-based"}, "[13]": {"system": "Stimulator of interferon genes protein (Homo sapiens), Q86WV6 [UNDEFINED MUTATION]", "assay": "Induction of STING S154 mutant degradation in human THP-1 cells at 1 uM incubated for 12 hrs by Western blotting analysis", "type": "cell-based"}, "[14]": {"molecular_target": "T1, Stimulator of interferon genes protein", "assay": "Induction of STING M155 mutant degradation in human THP-1 cells incubated for 24 hrs by Western blotting analysis", "type": "cell-based"}, "[15]": {"system": "Stimulator of interferon genes protein (Homo sapiens), Q86WV6 [UNDEFINED MUTATION]", "assay": "Induction of STING S154 mutant degradation in human THP-1 cells by measuring maximum efficacy at 0.01 to 10 uM incubated for 24 hrs by Western blotting analysis relative to control", "type": "cell-based", "settings": "dose 0.01-10 µM"}, "[16]": {"system": "Stimulator of interferon genes protein (Homo sapiens), Q86WV6 [UNDEFINED MUTATION]", "assay": "Induction of STING M155 mutant degradation in human THP-1 cells at 1 uM preincubated with MG132 for 2 hrs followed by compound addition and measured after 22 hrs by Western blotting analysis", "type": "cell-based"}, "[17]": {"system": "Stimulator of interferon genes protein (Homo sapiens), Q86WV6 [UNDEFINED MUTATION]", "assay": "Induction of STING M155 mutant degradation in human THP-1 cells at 1 uM preincubated with Baf A1 for 2 hrs followed by compound addition and measured after 22 hrs by Western blotting analysis", "type": "cell-based"}, "[18]": {"assay": "Metabolic stability in human liver microsomes assessed as half life at 10 uM in presence of NADPH by LC-MS/MS analysis", "type": "ADME, Microsome"}, "[19]": {"assay": "Metabolic stability in human plasma assessed as half life in presence of NADPH by LC-MS/MS analysis", "type": "ADME, cell-free"}, "[20]": {"assay": "Cmax in mouse at 20 mg/kg, po by LC-MS/MS analysis", "type": "ADME, organism-based", "settings": "in vivo, po, 20 mg/kg"}, "[21]": {"assay": "Half life in mouse at 20 mg/kg, po by LC-MS/MS analysis", "type": "ADME, organism-based", "settings": "in vivo"}, "[22]": {"assay": "Apparent oral clearance in mouse at 20 mg/kg, po by LC-MS/MS analysis", "type": "ADME, organism-based", "settings": "in vivo"}, "[23]": {"assay": "AUC in mouse at 20 mg/kg, po by LC-MS/MS analysis", "type": "ADME, organism-based", "settings": "in vivo"}, "[24]": {"molecular_target": "T2, Stimulator of interferon genes protein (Mus musculus)", "assay": "In vivo inhibition of cGAMP-induced STING activation in autoimmune disease female C57BL/6 mouse model assessed as decrease in cGAMP-induced serum CXCL-10 level at 10 mg/kg, sc pretreated with compound for 2 hrs followed by cGAMP addition and measured after 3 hrs by ELISA", "type": "functional, organism-based"}, "[25]": {"molecular_target": "T2, Stimulator of interferon genes protein (Mus musculus)", "assay": "In vivo inhibition of cGAMP-induced STING activation in autoimmune disease female C57BL/6 mouse model assessed as decrease in cGAMP-induced serum INF-beta level at 20 mg/kg, po pretreated with compound for 2 hrs followed by cGAMP addition and measured after 3 hrs by ELISA", "type": "functional, organism-based"}, "[26]": {"molecular_target": "T2, Stimulator of interferon genes protein (Mus musculus)", "assay": "In vivo inhibition of cGAMP-induced STING activation in autoimmune disease female C57BL/6 mouse model assessed as decrease in cGAMP-induced serum CXCL-10 level at 20 mg/kg, po pretreated with compound for 2 hrs followed by cGAMP addition and measured after 3 hrs by ELISA", "type": "functional, organism-based"}}, "note": "Calls of active or inactive are those of the source. The calls are words filed in the database; no cut-off is given here.", "data": [{"smiles": "COc1ccc2c(c1)C(=O)N(c1ccc(C(C)(C)C)c(F)c1)C(c1cc3cc(-c4ccc(C(=O)Nc5ccc(O)c(NS(C)(=O)=O)c5)cc4)ccc3o1)C2C(N)=O", "note": "(configuration not stated)", "values": [{"measurement": "IC50", "setting": "[1]", "value": 110, "unit": "nM"}, {"measurement": "IC50", "setting": "[2]", "value": 280, "unit": "nM"}, {"measurement": "inhibition", "setting": "[3]", "value": "Active"}, {"measurement": "inhibition", "setting": "[4]", "value": "Active"}, {"measurement": "inhibition", "setting": "[5]", "value": "Active"}, {"measurement": "inhibition", "setting": "[6]", "value": "inactive"}, {"measurement": "inhibition", "setting": "[7]", "value": "inactive"}, {"measurement": "inhibition", "setting": "[8]", "value": "inactive"}, {"measurement": "inhibition", "setting": "[9]", "value": "Active"}, {"measurement": "inhibition", "setting": "[10]", "value": "Active"}, {"measurement": "inhibition", "setting": "[11]", "value": "Active"}, {"measurement": "Activity", "setting": "[12]", "value": "Active"}, {"measurement": "Activity", "setting": "[13]", "value": "Active"}, {"measurement": "DC50", "setting": "[14]", "value": 760, "unit": "nM"}, {"measurement": "Emax", "setting": "[15]", "value": 89, "unit": "%"}, {"measurement": "Activity", "setting": "[16]", "value": "Active"}, {"measurement": "Activity", "setting": "[17]", "value": "inactive"}, {"measurement": "half-life at 10 µM", "setting": "[18]", "value": "> 1", "unit": "h"}, {"measurement": "half-life", "setting": "[19]", "value": "> 4", "unit": "h"}, {"measurement": "Cmax", "setting": "[20]", "value": 293, "unit": "ng/mL"}, {"measurement": "Cmax", "setting": "[20]; read-out: Cmax", "value": 200, "unit": "nM"}, {"measurement": "half-life", "setting": "[21]", "value": 3.3, "unit": "h"}, {"measurement": "CL/F", "setting": "[22]", "value": 163, "unit": "mL/min/kg"}, {"measurement": "AUC", "setting": "[23]", "value": 2020, "unit": "ng·h/mL"}, {"measurement": "inhibition", "setting": "[24]", "value": "Active"}, {"measurement": "inhibition", "setting": "[25]", "value": "Active"}, {"measurement": "inhibition", "setting": "[26]", "value": "Active"}]}]}
